# Assay results: publication PMC3898987 (Bioorganic & Medicinal Chemistry, 2013)
# Substitutions are numbered along the chain they refer to.
# Tests used:
# [1] = biological target: T1, 5-HT3AB receptor, 5-HT3B subunit Y143A (Homo sapiens, UniProt O95264+P46098, Y136A); assay: FlexStation membrane potential dye functional assay, HEK293 cells; conditions: 5-HT concentration-response, 5-HT3AB with 5-HT3B Y143A
# T1 sequence (P46098 24-478): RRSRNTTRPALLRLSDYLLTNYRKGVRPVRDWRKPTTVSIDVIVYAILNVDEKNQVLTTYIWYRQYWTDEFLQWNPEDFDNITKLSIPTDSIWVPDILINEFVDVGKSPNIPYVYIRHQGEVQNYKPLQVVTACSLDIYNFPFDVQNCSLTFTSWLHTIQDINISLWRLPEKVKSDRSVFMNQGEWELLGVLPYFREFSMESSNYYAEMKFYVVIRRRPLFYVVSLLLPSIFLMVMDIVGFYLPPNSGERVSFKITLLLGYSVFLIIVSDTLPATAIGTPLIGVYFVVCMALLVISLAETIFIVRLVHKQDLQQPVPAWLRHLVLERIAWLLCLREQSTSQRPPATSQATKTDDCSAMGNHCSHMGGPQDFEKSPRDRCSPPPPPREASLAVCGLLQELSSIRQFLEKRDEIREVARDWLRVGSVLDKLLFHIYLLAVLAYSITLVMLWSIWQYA
# T1 sequence (O95264 22-441 Y136A): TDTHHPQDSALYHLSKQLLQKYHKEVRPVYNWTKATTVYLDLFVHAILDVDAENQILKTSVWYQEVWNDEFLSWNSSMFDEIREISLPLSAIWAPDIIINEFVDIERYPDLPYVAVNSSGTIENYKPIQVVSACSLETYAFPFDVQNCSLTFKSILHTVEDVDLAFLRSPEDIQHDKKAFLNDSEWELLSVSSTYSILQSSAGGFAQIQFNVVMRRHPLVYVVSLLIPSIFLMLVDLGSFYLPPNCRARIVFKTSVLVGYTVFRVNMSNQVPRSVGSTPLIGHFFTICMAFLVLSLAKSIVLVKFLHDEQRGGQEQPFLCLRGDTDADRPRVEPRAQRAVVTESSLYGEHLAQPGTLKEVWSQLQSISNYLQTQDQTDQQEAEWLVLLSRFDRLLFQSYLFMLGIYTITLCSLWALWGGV
# Protocol: (§1) For FlexStation assays, transfected cells were plated on 96-well plates and incubated 1–2 days before assay.
# (§2) Fluorometric studies were undertaken using a FlexStation® (Molecular Devices, Sunnyvale, CA, USA) as previously described.[11]
# (§3) Fluorescence was measured every 2 s for 200 s. […] Concentration–response and inhibition curves were obtained for each mutant, and the fluorescence values were normalized to the maximal response.
# [2] = biological target: T2, 5-HT3AB receptor, 5-HT3B subunit W90C (Homo sapiens, UniProt O95264+P46098, W83C); assay: as above; conditions: 5-HT concentration-response, 5-HT3AB with 5-HT3B W90C
# T2 sequence (P46098 24-478): T1 sequence (P46098 24-478)
# T2 sequence (O95264 22-441 W83C): T1 sequence (O95264 22-441 Y136A) with W62C, A115Y
# Protocol: Human embryonic kidney (HEK) 293 cells were cultured on 90 mm tissue culture plates at 37 °C and 7% CO2 in a humidified atmosphere. They were grown in DMEM:F12 (Dulbecco’s Modified Eagle’s Medium/Nutrient Mix F12 (1:1)) with GlutaMAX I™ containing 10% fetal calf serum and passaged when confluent. […] For FlexStation assays, transfected cells were plated on 96-well plates and incubated 1–2 days before assay.
# as §2, §3
# [3] = biological target: T2, 5-HT3AB receptor, 5-HT3B subunit W90C; assay: radioligand saturation binding, transfected HEK293 membranes; conditions: [3H]-palonosetron saturation, 5-HT3AB with 5-HT3B W90C, 4 °C, 24 h
# Protocol: (§4) Human embryonic kidney (HEK) 293 cells were cultured on 90 mm tissue culture plates at 37 °C and 7% CO2 in a humidified atmosphere. They were grown in DMEM:F12 (Dulbecco’s Modified Eagle’s Medium/Nutrient Mix F12 (1:1)) with GlutaMAX I™ containing 10% fetal calf serum and passaged when confluent. For radioligand binding studies, cells in 90 mm dishes were transfected at 60–70% confluency using polyethyleneimine and incubated for 3–4 days before use. For FlexStation assays, transfected cells were plated on 96-well plates and incubated 1–2 days before assay. […]
# (§5) Eight-point binding assays were performed to produce saturation binding curves. […] Radioactive counts were measured using a Beckman LS6000SC liquid scintillation counter (Fullerton, California, USA).
# (§6) Data were analyzed by iterative curve fitting using GraphPad Prism v5 (San Diego, CA) according to the following equation: B=Bmax[L]^n/kdn+[L]^n where B is the amount of bound radioligand, Bmax is the maximum specific binding at equilibrium, [L] is the concentration of radioligand, Kd is the equilibrium dissociation constant of the radioligand, and n is the Hill coefficient.
# WT 5-HT3AB receptor = biological target: T3, WT 5-HT3AB receptor (Homo sapiens, UniProt O95264+P46098); assay: as above; conditions: [3H]-palonosetron saturation, 4 °C, 24 h
# T3 sequence (P46098 24-478): T1 sequence (P46098 24-478)
# T3 sequence (O95264 22-441): T1 sequence (O95264 22-441 Y136A) with A115Y
# Protocol: as §4, §5, §6
# [4] = biological target: T1, 5-HT3AB receptor, 5-HT3B subunit Y143A; assay: cell-based
# Protocol: as §1, §2, §3
# 5-HT3A receptor F130Y = biological target: T4, 5-HT3A receptor F130Y (Homo sapiens, UniProt P46098, F125Y); assay: radioligand saturation binding, transfected HEK293 membranes; conditions: [3H]-palonosetron saturation, 5-HT3A F130Y, 4 °C, 24 h
# T4 sequence (P46098 24-478 F125Y): T1 sequence (P46098 24-478) with F102Y
# Protocol: as §4, §5, §6
# [5] = biological target: T5, 5-HT3AB receptor, 5-HT3B subunit E170A (Homo sapiens, UniProt P46098); assay: biochemical; type: binding; conditions: [3H]-palonosetron saturation, 5-HT3AB with 5-HT3B E170A, 4 °C, 24 h
# T5 construct: variant as stated: E170A
# T5 sequence (P46098 24-478): T1 sequence (P46098 24-478)
# T5 sequence (O95264 22-441 partner): T1 sequence (O95264 22-441 Y136A) with A115Y
# Protocol: as §4, §5, §6
Compound,Hill Coefficient [1],Hill Coefficient [2],Kd [3] [nM],Kd (WT 5-HT3AB receptor) [nM],IC50 [4] [nM],Kd (5-HT3A receptor F130Y) [nM],Kd [5] [nM]
"NCCc1c[nH]c2ccc(O)cc12 [5-HT, serotonin]",1.3 ± 0.2,2.0 ± 0.4,–,–,–,–,–
O=C1c2cccc3c2[C@H](CCC3)CN1[C@@H]1CN2CCC1CC2 [Palonosetron],–,–,0.34 ± 0.06,0.18 ± 0.02,0.38 ± 0.05,0.26 ± 0.09,0.21 ± 0.03
